Numbered stars: 1 amine (or outer) side, 2 acyl side, 3 side chain; on linkers, the order of the positions; unused ones are H or OH. Square brackets hold non-standard residues; d marks the D form. Side chains are listed from the residue outwards. Peptide text beside a SMILES is read from it. * marks the point of attachment. Decanoyl(10-(4-HOOC-PhO)) = O=C(O)c1ccc(OCCCCCCCCCC(=O)*)cc1; γGlu = O=C(O)[C@H](CCC(=O)[*:2])N[*:1]; C14 diacid = O=C(O)CCCCCCCCCCCCC(=O)*; AEEA = NCCOCCOCC(=O)O; Aib = CC(C)(N)C(=O)O
Assays:
human GLP-1 receptor [1] = target: T1, human GLP-1 receptor (Homo sapiens, UniProt P43220); experiment: GLP-1 receptor binding: displacement of 125I-GLP-1 (SPA) at low and high albumin; details: 2.0% HSA vs 0.001% HSA
T1 construct: expressed in transfected cells; membranes
In short: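 Membranes from hamster cells stably transfected with the receptor, with WGA SPA beads and 0.06 nM [^125I]-GLP-1(7-36)NH2, incubated 120 min at 30 °C with shaking.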

[2] = Pharmacokinetics in rat: half-life after i.v. administration; type: in vivo; details: plasma, iv, 6 nmol/kg, male Sprague Dawley rats, approximately 4 rats per group, read-out: t½/h (half-life in rat) (converted)
Experimental: In vivo pharmacokinetic studies in rats were performed with the GLP-1 derivatives of Examples 2, 10, 17-18, and 31, as described in the following. Semaglutide was included for comparison.
Male Sprague Dawley rats of same age with a body weight of approximately 400 g were obtained from Taconic (Denmark) and assigned to the treatments by simple randomisation on body weight, approximately 4 rats per group, so that all animals in each group were of similar body weight.
The GLP-1 derivatives (approximately 6 nmol/ml) were dissolved in 50 mM sodium phosphate, 145 mM sodium chloride, 0.05% tween 80, pH 7.4. Intravenous injections (1.0 ml/kg) of the compounds were given through a catheter implanted in the right jugular vein. Blood was sampled from vena sublingualis for 5 days post dosing. Blood samples (200 μl) were collected in EDTA buffer (8 mM) and then centrifuged at 4° C. and 10000 G for 5 minutes. Plasma samples were kept at −20° C. until analyzed for plasma concentration of the respective GLP-1 compound.
The plasma concentrations of the GLP-1 compounds were determined using a Luminescence Oxygen Channeling Immunoasssay (LOCI), generally as described for the determination of insulin by Poulsen and Jensen in Journal of Biomolecular Screening 2007, vol. 12, p. 240-247. The donor beads were coated with streptavidin, while acceptor beads were conjugated with a monoclonal antibody recognising a mid-/C-terminal epitope of the peptide. Another monoclonal antibody, specific for the N-terminus, was biotinylated. The three reactants were combined with the analyte and formed a two-sited immuno-complex. Illumination of the complex released singlet oxygen atoms from the donor beads, which were channeled into the acceptor beads and triggered chemiluminescence which was measured in an Envision plate reader. The amount of light was proportional to the concentration of the compound.
Plasma concentration-time profiles were analyzed using Phoenix WinNonLin ver. 6.2, Pharsight Inc., Mountain View, Calif., USA), and the half-life (T1/2) calculated using individual plasma concentration-time profiles from each animal.

[3] = Estimate of oral bioavailability: gut injection in rat (caprate), exposure in plasma; type: in vivo; details: injection in jejunum, 1000 uM in 55 mg/ml sodium caprate, plasma concentration (pM) at 30 min divided by dosing solution concentration (μM), mean n=4
In short: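 Male Sprague Dawley rats (~240 g, n=4) received 100 μl of 1000 uM derivative in 55 mg/ml sodium caprate by catheter into proximal or mid jejunum. Tail-vein EDTA plasma was sampled up to 240 min. Peptide was quantified by two-antibody bead chemiluminescence immunoassay, giving mean concentration-time profiles (pmol/l).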

human GLP-1 receptor [4] = target: T1, human GLP-1 receptor; experiment: In vitro potency: stimulation of cAMP formation (AlphaScreen cAMP Assay) in membranes expressing the human GLP-1 receptor; type: biochemical; details: membranes from BHK467-12A (tk-ts13) expressing the human GLP-1 receptor
Experimental: Purified plasma membranes from a stable transfected cell line, BHK467-12A (tk-ts13), expressing the human GLP-1 receptor were stimulated with the GLP-1 analogue or derivative in question, and the potency of cAMP production was measured using the AlphaScreen™ cAMP Assay Kit from Perkin Elmer Life Sciences. The basic principle of the AlphaScreen Assay is a competition between endogenous cAMP and exogenously added biotin-cAMP. The capture of cAMP is achieved by using a specific antibody conjugated to acceptor beads.
A stable transfected cell line and a high expressing clone were selected for screening. The cells were grown at 5% CO2 in DMEM, 5% FCS, 1% Pen/Strep (Penicillin/Streptomycin) and 0.5 mg/ml of the selection marker G418.
Cells at approximately 80% confluence were washed 2× with PBS and harvested with Versene (aqueous solution of the tetrasodium salt of ethylenediaminetetraacetic acid), centrifuged 5 min at 1000 rpm and the supernatant removed. The additional steps were all performed on ice. The cell pellet was homogenised by the Ultrathurax for 20-30 s in 10 ml of Buffer 1 (20 mM Na-HEPES, 10 mM EDTA, pH=7.4), centrifuged 15 min at 20,000 rpm and the pellet resuspended in 10 ml of Buffer 2 (20 mM Na-HEPES, 0.1 mM EDTA, pH=7.4). The suspension was homogenised for 20-30 s and centrifuged 15 min at 20,000 rpm. Suspension in Buffer 2, homogenisation and centrifugation was repeated once and the membranes were resuspended in Buffer 2. The protein concentration was determined and the membranes stored at −80° C. until use.
The final volume per well was 50 μl.
AlphaScreen cAMP Assay Kit from Perkin Elmer Life Sciences (cat. No: 6760625M); containing Anti-cAMP Acceptor beads (10 U/μl), Streptavidin Donor beads (10 U/μl) and Biotinylated-cAMP (133 U/μl).
cAMP standard (dilution factor in assay=5): cAMP Solution: 5 μL of a 5 mM cAMP-stock+495 μL AlphaScreen Buffer.
Membranes were prepared from hGLP-1/BHK 467-12A cells with a concentration of 6 μg/well corresponding to 0.6 mg/ml (the amount of membranes used pr. well may vary)
“No membranes”: Acceptor Beads (15 μg/ml final) in AlphaScreen buffer
“6 μg/well membranes”: membranes+Acceptor Beads (15 μg/ml final) in AlphaScreen buffer
An aliquot (10 μl) of “No membranes” was added to the cAMP standard (per well in duplicate wells) and the positive and negative controls
An aliquot (10 μl) of “6 μg/well membranes” was added to GLP-1 and analogues (per well in duplicate or triplicate wells)
Pos. Control: 10 μl “no membranes”+10 μl AlphaScreen Buffer
Neg. Control: 10 μl “no membranes”+10 μl cAMP Stock Solution (50 μM)
1. Make the AlphaScreen Buffer.
2. Dissolve and dilute the GLP-1/Analogues/cAMP standard in AlphaScreen Buffer.
4. Add the cAMP/GLP-1/Analogues to the plate: 10 μl per well.
5. Prepare membrane/Acceptor Beads solution and add this to the plates: 10 μl per well.
6. Add the Donor Beads: 30 μl per well.

T1 sequence (P43220 24-463): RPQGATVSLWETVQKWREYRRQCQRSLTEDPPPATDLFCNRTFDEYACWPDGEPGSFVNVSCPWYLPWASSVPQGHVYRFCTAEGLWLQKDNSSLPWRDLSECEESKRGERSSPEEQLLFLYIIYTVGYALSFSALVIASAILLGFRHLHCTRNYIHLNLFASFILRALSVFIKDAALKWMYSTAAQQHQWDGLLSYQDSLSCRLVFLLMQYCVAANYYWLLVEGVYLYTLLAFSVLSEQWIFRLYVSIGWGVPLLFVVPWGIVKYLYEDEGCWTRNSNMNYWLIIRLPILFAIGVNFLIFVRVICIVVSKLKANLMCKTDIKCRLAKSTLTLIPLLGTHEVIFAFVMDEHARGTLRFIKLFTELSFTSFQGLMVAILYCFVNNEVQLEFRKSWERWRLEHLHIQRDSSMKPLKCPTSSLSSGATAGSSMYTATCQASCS

Row | Compound | Ratio [(IC50/nM) high HSA]/[(IC50/nM) low HSA] (human GLP-1 receptor [1]) | half-life [2] [h] | Dose-corrected exposure at 30 min [3] | EC50 (human GLP-1 receptor [4]) [nM]
1 | CC[C@H](C)[C@H](NC(=O)[C@H](Cc1ccccc1)NC(=O)[C@H](CCCCNC(=O)COCCOCCNC(=O)COCCOCCNC(=O)CC[C@H](NC(=O)CCCCCCCCCOc1ccc(C(=O)O)cc1)C(=O)O)NC(=O)[C@H](CCCNC(=N)N)NC(=O)[C@H](C)NC(=O)[C@H](C)NC(=O)[C@H](CCC(N)=O)NC(=O)[C@H](CCC(=O)O)NC(=O)[C@H](CCC(=O)O)NC(=O)[C@H](CC(C)C)NC(=O)[C@H](Cc1ccc(O)cc1)NC(=O)[C@H](CO)NC(=O)[C@H](CO)NC(=O)[C@@H](NC(=O)[C@H](CC(=O)O)NC(=O)[C@H](CO)NC(=O)[C@@H](NC(=O)[C@H](Cc1ccccc1)NC(=O)[C@@H](NC(=O)CNC(=O)[C@H](CCC(=O)O)NC(=O)C(C)(C)NC(=O)[C@@H](N)Cc1c[nH]cn1)[C@@H](C)O)[C@@H](C)O)C(C)C)C(=O)N[C@@H](CCC(=O)O)C(=O)N[C@@H](Cc1c[nH]c2ccccc12)C(=O)N[C@@H](CC(C)C)C(=O)N[C@H](C(=O)N[C@@H](CCCNC(=N)N)C(=O)NCC(=O)N[C@@H](CCCCNC(=O)COCCOCCNC(=O)COCCOCCNC(=O)CC[C@H](NC(=O)CCCCCCCCCOc1ccc(C(=O)O)cc1)C(=O)O)C(=O)NCC(=O)N[C@@H](CCC(=O)O)C(=O)NCC(=O)O)C(C)C [Example 31, N^ε27-[2-[2-[2-[[2-[2-[2-[[(4S)-4-carboxy-4-[10-(4-carboxyphenoxy)decanoylamino]butanoyl]amino]ethoxy]ethoxy]acetyl]amino]ethoxy]ethoxy]acetyl], N^ε36-[2-[2-[2-[[2-[2-[2-[[(4S)-4-carboxy-4-[10-(4-carboxyphenoxy)decanoylamino]butanoyl]amino]ethoxy]ethoxy]acetyl]amino]ethoxy]ethoxy]acetyl]-[Aib^8,Glu^22,Arg^26,Lys^27,Glu^30,Arg^34,Lys^36]-GLP-1-(7-37)-peptidyl-Glu-Gly] (H-H[Aib]EGTFTSDVSSYLEEQAARK([AEEA-AEEA-γGlu-Decanoyl(10-(4-HOOC-PhO))])FIEWLVRGK([AEEA-AEEA-γGlu-Decanoyl(10-(4-HOOC-PhO))])GEG-OH; N-terminus and C-terminus assumed) | 629 | 19 |  | 
2 | CC[C@H](C)[C@H](NC(=O)[C@H](Cc1ccccc1)NC(=O)[C@H](CCCCNC(=O)COCCOCCNC(=O)COCCOCCNC(=O)CC[C@H](NC(=O)CCCCCCCCCCCCC(=O)O)C(=O)O)NC(=O)[C@H](CCCNC(=N)N)NC(=O)[C@H](C)NC(=O)[C@H](C)NC(=O)[C@H](CCC(N)=O)NC(=O)[C@H](CCCCNC(=O)COCCOCCNC(=O)COCCOCCNC(=O)CC[C@H](NC(=O)CCCCCCCCCCCCC(=O)O)C(=O)O)NC(=O)[C@H](CCC(=O)O)NC(=O)[C@H](CC(C)C)NC(=O)[C@H](Cc1ccc(O)cc1)NC(=O)[C@H](CO)NC(=O)[C@H](CO)NC(=O)[C@@H](NC(=O)[C@H](CC(=O)O)NC(=O)[C@H](CO)NC(=O)[C@@H](NC(=O)[C@H](Cc1ccccc1)NC(=O)[C@@H](NC(=O)CNC(=O)[C@H](CCC(=O)O)NC(=O)C(C)(C)NC(=O)[C@@H](N)Cc1c[nH]cn1)[C@@H](C)O)[C@@H](C)O)C(C)C)C(=O)N[C@@H](C)C(=O)N[C@@H](Cc1c[nH]cn1)C(=O)N[C@@H](CC(C)C)C(=O)N[C@H](C(=O)NCC(=O)O)C(C)C [Example 19, N^ε22-[2-[2-[2-[[2-[2-[2-[[(4S)-4-carboxy-4-(13-carboxytridecanoylamino)butanoyl]amino]ethoxy]ethoxy]acetyl]amino]ethoxy]ethoxy]acetyl], N^ε27-[2-[2-[2-[[2-[2-[2-[[(4S)-4-carboxy-4-(13-carboxytridecanoylamino)butanoyl]amino]ethoxy]ethoxy]acetyl]amino]ethoxy]ethoxy]acetyl]-[Aib^8,Lys^22,Arg^26,Lys^27,His^31,Gly^34]-GLP-1-(7-34)-peptide] (H-H[Aib]EGTFTSDVSSYLEK([AEEA-AEEA-γGlu-C14 diacid])QAARK([AEEA-AEEA-γGlu-C14 diacid])FIAHLVG-OH) | 60 |  | 61 | 0.052
3 | CC[C@H](C)[C@H](NC(=O)[C@H](Cc1ccccc1)NC(=O)[C@H](CCCCNC(=O)COCCOCCNC(=O)COCCOCCNC(=O)CC[C@H](NC(=O)CCCCCCCCCOc1ccc(C(=O)O)cc1)C(=O)O)NC(=O)[C@H](Cc1c[nH]cn1)NC(=O)[C@H](C)NC(=O)[C@H](C)NC(=O)[C@H](CCC(N)=O)NC(=O)[C@H](CCC(=O)O)NC(=O)[C@H](CCC(=O)O)NC(=O)[C@H](CC(C)C)NC(=O)[C@H](Cc1ccc(O)cc1)NC(=O)[C@H](CO)NC(=O)[C@H](CO)NC(=O)[C@@H](NC(=O)[C@H](CC(=O)O)NC(=O)[C@H](CO)NC(=O)[C@@H](NC(=O)[C@H](Cc1ccccc1)NC(=O)[C@@H](NC(=O)CNC(=O)[C@H](CCC(=O)O)NC(=O)[C@H](C)NC(=O)[C@@H](N)Cc1c[nH]cn1)[C@@H](C)O)[C@@H](C)O)C(C)C)C(=O)N[C@@H](CCC(=O)O)C(=O)N[C@@H](Cc1c[nH]c2ccccc12)C(=O)N[C@@H](CC(C)C)C(=O)N[C@H](C(=O)N[C@@H](CCCNC(=N)N)C(=O)NCC(=O)N[C@@H](CCCCNC(=O)COCCOCCNC(=O)COCCOCCNC(=O)CC[C@H](NC(=O)CCCCCCCCCOc1ccc(C(=O)O)cc1)C(=O)O)C(=O)NCC(=O)N[C@@H](CCC(=O)O)C(=O)O)C(C)C [Example 21, N^ε27-[2-[2-[2-[[2-[2-[2-[[(4S)-4-carboxy-4-[10-(4-carboxyphenoxy)decanoylamino]butanoyl]amino]ethoxy]ethoxy]acetyl]amino]ethoxy]ethoxy]acetyl], N^ε36-[2-[2-[2-[[2-[2-[2-[[(4S)-4-carboxy-4-[10-(4-carboxyphenoxy)decanoylamino]butanoyl]amino]ethoxy]ethoxy]acetyl]amino]ethoxy]ethoxy]acetyl]-[Glu^22,His^26,Lys^27,Glu^30,Arg^34,Lys^36]-GLP-1-(7-37)-peptidyl-Glu] (H-HAEGTFTSDVSSYLEEQAAHK([AEEA-AEEA-γGlu-Decanoyl(10-(4-HOOC-PhO))])FIEWLVRGK([AEEA-AEEA-γGlu-Decanoyl(10-(4-HOOC-PhO))])GE-OH; N-terminus and C-terminus assumed) |  |  | 140 | 0.052

Source: patent US11117947B2, “Double-acylated GLP-1 derivatives” (Novo Nordisk A/S, priority 2011, dated 2021)
